# Laboratory results taken from patent US20230158020A1, “Method for treating RNA viral infections, including COVID-19 (SARS-CoV-2)” (priority 2020, published 2023).
# Where two headings read alike, the source gives them in different places.
# Assays:
# SARS-CoV-2 = type: in vivo
# COVID-19 = settings: patients with confirmed COVID-19; FVP orally 1600 mg twice a day on day 1, 600 mg twice a day days 2-14, plus interferon-α aerosol 5 million units twice a day; control lopinavir/ritanovir 400 mg/100 mg twice a day; cited from earlier work
smiles,measurement,setting,value
"NC(=O)c1nc(F)c[nH]c1=O [FVP, Favipiravir]",virus elimination rate,SARS-CoV-2; patients with FVP dose <43 mg/kg on day 1,44%
same,virus elimination rate,SARS-CoV-2; patients with FVP dose ≥43 mg/kg on day 1,79%
same,viral clearance,COVID-19,4 days
